In patent US20250282799A1, “SUBSTITUTED PYRIDO[4,3-d]PYRIMIDINES AS KRAS MODULATORS” (Alterome Therapeutics, Inc., priority 2023, published 2025):

Test system: KRAS G12V dependent lung adenocarcinoma cell line, NCI-H441
Test: Cellular pERK (Thr202/Tyr204) FRET/HTRF assay
Format: cell-based
How it was run: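 Read-out is a wash-free FRET sandwich immunoassay for endogenous ERK1/2 phosphorylated on Thr202/Tyr204. Signal was measured in NCI-H441 lung adenocarcinoma cells after 1 hr compound exposure at 37 °C. IC50 values come from fitted concentration-response curves.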

[1] = cellular pERK HTRF, NCI-H441 (KRAS G12V) cells
[2] = Homo sapiens, NCI-H441, cellular pERK (Thr202/Tyr204) HTRF, NCI-H441 cells

Structure (SMILES)	IC50 [1] [µM]	IC50 [2] [µM]
[2H]C([2H])(Oc1nc(N2CCOC[C@H]3[C@H](F)[C@H]32)c2cc(F)c(-c3cc(O)cc4ccc(F)c(C#C)c34)c(C)c2n1)[C@@]12CCCN1C[C@H](F)C2 (atropisomer, axis not shown; (aS)) [Example 467, 5-Ethynyl-6-fluoro-4-((R)-6-fluoro-4-((1S,7S,8S)-8-fluoro-5-oxa-2-azabicyclo[5.1.0]octan-2-yl)-2-(((2R,7aS)-2-fluorotetrahydro-1H-pyrrolizin-7a(5H)-yl)methoxy-d2)-8-methylquinazolin-7-yl)naphthalen-2-ol]	0.5 to 10	
[2H]C([2H])(Oc1nc(N2CCOC[C@H]3[C@H](F)[C@H]32)c2cc(C(F)(F)F)c(-c3cccc4sc(N)c(C#N)c34)c(F)c2n1)[C@@]12CCCN1C[C@H](F)C2 (atropisomer, axis not shown; (aS)) [Example 468, 2-amino-4-((R)-8-fluoro-4-((1S,7S,8S)-8-fluoro-5-oxa-2-azabicyclo[5.1.0]octan-2-yl)-2-(((2R,7aS)-2-fluorotetrahydro-1H-pyrrolizin-7a(5H)-yl)methoxy-d2)-6-(trifluoromethyl)quinazolin-7-yl)benzo[b]thiophene-3-carbonitrile]	< 0.05	
[2H]C1([2H])CC2(CC2)[C@@]2(C([2H])([2H])Oc3nc(N4CCOC[C@H]5[C@H](F)[C@H]54)c4cnc(-c5cc(N)cc6ccc(F)c(C#C)c56)c(F)c4n3)C[C@@]([2H])(F)CN12 (single isomer, unassigned) [Example 202]		< 0.05
[2H]C1([2H])CC2(CC2)[C@@]2(C([2H])([2H])Oc3nc(N4CCOC[C@H]5[C@H](F)[C@H]54)c4cnc(-c5cc(N)cc6ccc(F)c(C#C)c56)c(F)c4n3)C[C@]([2H])(F)CN12 (single isomer, unassigned) [Example 203]		< 0.05
[2H]C1([2H])CC2(CC2)[C@]2(C([2H])([2H])Oc3nc(N4CCOC[C@H]5[C@H](F)[C@H]54)c4cnc(-c5cc(N)cc6ccc(F)c(C#C)c56)c(F)c4n3)C[C@]([2H])(F)CN12 (single isomer, unassigned) [Example 204]		< 0.05
[2H]C1([2H])CC2(CC2)[C@]2(C([2H])([2H])Oc3nc(N4CCOC[C@H]5[C@H](F)[C@H]54)c4cnc(-c5cc(N)cc6ccc(F)c(C#C)c56)c(F)c4n3)C[C@@]([2H])(F)CN12 (single isomer, unassigned) [Example 205]		< 0.05
C#Cc1c(F)ccc2cc(N)cc(-c3ncc4c(N5CCOC[C@H]6[C@H](F)[C@H]65)nc(OC[C@@]56CCCN5C[C@H](C)C6)nc4c3F)c12 (single isomer, unassigned) [Example 208]		< 0.05
C#Cc1c(F)ccc2cc(N)cc(-c3ncc4c(N5CCOC[C@H]6[C@H](F)[C@H]65)nc(OC[C@@]56CCCN5C[C@@H](C)C6)nc4c3F)c12 (single isomer, unassigned) [Example 209]		< 0.05
C#Cc1c(F)ccc2cc(N)cc(-c3ncc4c(N5CCOC[C@H]6[C@H](F)[C@H]65)nc(OC[C@@]56CCCN5C[C@]5(CC5(F)F)C6)nc4c3F)c12 (single isomer, unassigned) [Example 210]		< 0.05
C#Cc1c(F)ccc2cc(N)cc(-c3ncc4c(N5CCOC[C@H]6[C@H](F)[C@H]65)nc(OC[C@@]56CCCN5C[C@@]5(CC5(F)F)C6)nc4c3F)c12 (single isomer, unassigned) [Example 211]		< 0.05
[2H]C([2H])(F)Oc1c(F)ccc2cc(N)cc(-c3ncc4c(N5CCOC[C@H]6[C@H](F)[C@H]65)nc(OC[C@@]56CCCN5C[C@@H](C)C6)nc4c3F)c12 (single isomer, unassigned) [Example 214]		< 0.05
[2H]C([2H])(F)Oc1c(F)ccc2cc(N)cc(-c3ncc4c(N5CCOC[C@H]6[C@H](F)[C@H]65)nc(OC[C@@]56CCCN5C[C@H](C)C6)nc4c3F)c12 (single isomer, unassigned) [Example 215]		< 0.05
C#Cc1c(F)ccc2cc(N)cc(-c3ncc4c(N5CCOC[C@H]6[C@H](F)[C@H]65)nc(OC[C@]56C[C@@]7(CN5CCC65CC5)CC7(F)F)nc4c3F)c12 (single isomer, unassigned) [Example 218]		< 0.05
C#Cc1c(F)ccc2cc(N)cc(-c3ncc4c(N5CCOC[C@H]6[C@H](F)[C@H]65)nc(OC[C@]56C[C@]7(CN5CCC65CC5)CC7(F)F)nc4c3F)c12 (single isomer, unassigned) [Example 219]		< 0.05
[2H]C([2H])(F)Oc1c(F)ccc2cc(N)cc(-c3ncc4c(N5CCOC[C@H]6[C@H](F)[C@H]65)nc(OC[C@@]56CCCN5C[C@@]5(CC5(F)F)C6)nc4c3F)c12 (single isomer, unassigned) [Example 229]		< 0.05
[2H]C([2H])(F)Oc1c(F)ccc2cc(N)cc(-c3ncc4c(N5CCOC[C@H]6[C@H](F)[C@H]65)nc(OC[C@@]56CCCN5C[C@]5(CC5(F)F)C6)nc4c3F)c12 (single isomer, unassigned) [Example 230]		< 0.05
C#Cc1c(F)ccc2cc(N)cc(-c3ncc4c(N5CCOC[C@H]6[C@H](F)[C@H]65)nc(OC[C@]56C[C@]7(C[C@H]7F)CN5CCC65CC5)nc4c3F)c12 (single isomer, unassigned) [Example 231]		< 0.05

Structure (SMILES)	IC50 [1] [µM]	IC50 [2] [µM]
C#Cc1c(F)ccc2cc(N)cc(-c3ncc4c(N5CCOC[C@H]6[C@H](F)[C@H]65)nc(OC[C@]56C[C@]7(C[C@@H]7F)CN5CCC65CC5)nc4c3F)c12 (single isomer, unassigned) [Example 232]		< 0.05
C#Cc1c(F)ccc2cc(N)cc(-c3ncc4c(N5CCOC[C@H]6[C@H](F)[C@H]65)nc(OC[C@]56C[C@@]7(C[C@H]7F)CN5CCC65CC5)nc4c3F)c12 (single isomer, unassigned) [Example 233]		< 0.05
C#Cc1c(F)ccc2cc(N)cc(-c3ncc4c(N5CCOC[C@H]6[C@H](F)[C@H]65)nc(OC[C@]56C[C@@]7(C[C@@H]7F)CN5CCC65CC5)nc4c3F)c12 (single isomer, unassigned) [Example 234]		< 0.05
[2H]C([2H])(Oc1nc(N2CCOC[C@H]3[C@H](F)[C@H]32)c2cnc(-c3cc(N)cc4ccc(F)c(C#C)c34)c(F)c2n1)[C@@]12CCCN1C[C@@H](Cl)C2 (single isomer, unassigned) [Example 237]		< 0.05
[2H]C([2H])(Oc1nc(N2CCOC[C@H]3[C@H](F)[C@H]32)c2cnc(-c3cc(N)cc4ccc(F)c(C#C)c34)c(F)c2n1)[C@@]12CCCN1C[C@H](Cl)C2 (single isomer, unassigned) [Example 238]		< 0.05
C#Cc1c(F)ccc2cc(N)cc(-c3ncc4c(N5CCOC[C@H]6[C@H](F)[C@H]65)nc(OC[C@]56C[C@@H](C)CN5CCC65CC5)nc4c3F)c12 (single isomer, unassigned) [Example 242]		< 0.05
C#Cc1c(F)ccc2cc(N)cc(-c3ncc4c(N5CCOC[C@H]6[C@H](F)[C@H]65)nc(OC[C@@]56C[C@H](C)CN5CCC65CC5)nc4c3F)c12 (single isomer, unassigned) [Example 243]		< 0.05
C#Cc1c(F)ccc2cc(N)cc(-c3ncc4c(N5CCOC[C@H]6[C@H](F)[C@H]65)nc(OC[C@]56C[C@H](C)CN5CCC65CC5)nc4c3F)c12 (single isomer, unassigned) [Example 251]		< 0.05
C#Cc1c(F)ccc2cc(N)cc(-c3ncc4c(N5CCOC[C@H]6[C@H](F)[C@H]65)nc(OC[C@@]56CCCN5C[C@@]5(C[C@@H]5F)C6)nc4c3F)c12 (single isomer, unassigned) [Example 252]		< 0.05
C#Cc1c(F)ccc2cc(N)cc(-c3ncc4c(N5CCOC[C@H]6[C@H](F)[C@H]65)nc(OC[C@@]56CCCN5C[C@@]5(C[C@H]5F)C6)nc4c3F)c12 (single isomer, unassigned) [Example 253]		< 0.05
C#Cc1c(F)ccc2cc(N)cc(-c3ncc4c(N5CCOC[C@H]6[C@H](F)[C@H]65)nc(OC[C@@]56CCCN5C[C@]5(C[C@H]5F)C6)nc4c3F)c12 (single isomer, unassigned) [Example 254]		< 0.05
C#Cc1c(F)ccc2cc(N)cc(-c3ncc4c(N5CCOC[C@H]6[C@H](F)[C@H]65)nc(OC[C@@]56CCCN5C[C@]5(C[C@@H]5F)C6)nc4c3F)c12 (single isomer, unassigned) [Example 255]		< 0.05
[2H]C([2H])(Oc1nc(N2CCOC[C@H]3[C@H](F)[C@H]32)c2cnc(-c3cc(N)cc4ccc(F)c(C#C)c34)c(F)c2n1)[C@@]12CCCN1C[C@@H](CF)C2 (single isomer, unassigned) [Example 265]		< 0.05
[2H]C([2H])(Oc1nc(N2CCOC[C@H]3[C@H](F)[C@H]32)c2cnc(-c3cc(N)cc4ccc(F)c(C#C)c34)c(F)c2n1)[C@@]12CCCN1C[C@H](CF)C2 (single isomer, unassigned) [Example 266]		< 0.05
[2H]C1([2H])CC[C@@]2(C([2H])([2H])Oc3nc(N4CCOC[C@H]5[C@H](F)[C@H]54)c4cnc(-c5cc(N)cc6ccc(F)c(C#C)c56)c(F)c4n3)C[C@@]3(C[C@H]3F)CN12 (single isomer, unassigned) [Example 274]		< 0.05
[2H]C1([2H])CC[C@@]2(C([2H])([2H])Oc3nc(N4CCOC[C@H]5[C@H](F)[C@H]54)c4cnc(-c5cc(N)cc6ccc(F)c(C#C)c56)c(F)c4n3)C[C@@]3(C[C@@H]3F)CN12 (single isomer, unassigned) [Example 275]		< 0.05
[2H]C([2H])(Oc1nc(N2CCOC[C@H]3[C@H](F)[C@H]32)c2cnc(-c3cc(N)cc4ccc(F)c(C#C)c34)c(F)c2n1)[C@@]12CCCN1C[C@]1(C[C@H]1F)C2 (single isomer, unassigned) [Example 312]		< 0.05
